These results are taken from patent publication US4020160A, “Cyclodextrin sulfate salts as complement inhibitors” (American Cyanamid Company, priority 1975, dated 1977).

“And” between values parts separate entries of the source, which are not always exact repeats. Identical values can stand only once. Counter-ions that a name gives are not always drawn.

Assay [1] has as its system complement system. Conditions: reported in literature; cited from earlier work.
For assay [2] the following is noted: reported in literature; cited from earlier work.
For assay [3], the system named is late components of human complement (C3-C9). Put plainly: Test, Code 035 (C3-C9 inhibitor), lysis of EAC 142. The assay is classed as biochemical. As to conditions: higher well number indicates higher activity; serial dilutions two-fold. The text has this: (§1) This test measures the ability of activated human C1 to destroy fluid phase human C2 in the presence of C4 and appropriate dilutions of the test compound. An active inhibitor protects C2 from C1 and C4; (ii) Test, Code 035 (C3-C9 inhibitor) -- This test determines the ability of the late components of human complement (C3-C9) to lyse EAC 142 in the presence of appropriate dilutions of the test compound. An active inhibitor protects EAC 142 from lysis by human C3-C9; (iii) Test, Code 036 (C-Shunt inhibitor)-In this test human erythrocytes rendered fragile are lysed in autologous serum via the shunt pathway activated by cobra venom factor in the presence of appropriate dilutions of the test compound. Inhibition of the shunt pathway results in failure of lysis; (iv) Forssman Vasculitis Test -- Here, the well known complement dependent lesion, Forssman vasculitis, is produced in guinea pigs by intradermal injection of rabbit anti-Forssman antiserum. The lesion is measured in terms of diameter, edema and hemorrhage and the extent to which a combined index of these is inhibited by prior intraperitoneal injection of the test compound at 200 mg/kg is then reported, unless otherwise stated; (v) Forssman Shock Test -- Lethal shock is produced in guinea pigs by an i.v. injection of anti-Forssman antiserum and the harmonic mean death time of treated guinea pigs is compared with that of simultaneous controls; (vi) Complement Level Reduction Test -- In this test, the above dosed guinea pigs, or others, are bled for serum and the complement level is determined in undiluted serum by the capillary tube method of U.S. Pat. No. 3,876,376 and compared to undosed control guinea pigs; and (vii) Cap 50 Test -- Here, appropriate amounts of the test compound are added to a pool of guinea pig serum in vitro, after which the undiluted serum capillary tube assay referred to above is run. The concentration of compound inhibiting 50% is reported.

The target of assay [4] is T1, activated human C1 (Homo sapiens, UniProt P09871).
T1 sequence (P09871 16-437 limits assumed): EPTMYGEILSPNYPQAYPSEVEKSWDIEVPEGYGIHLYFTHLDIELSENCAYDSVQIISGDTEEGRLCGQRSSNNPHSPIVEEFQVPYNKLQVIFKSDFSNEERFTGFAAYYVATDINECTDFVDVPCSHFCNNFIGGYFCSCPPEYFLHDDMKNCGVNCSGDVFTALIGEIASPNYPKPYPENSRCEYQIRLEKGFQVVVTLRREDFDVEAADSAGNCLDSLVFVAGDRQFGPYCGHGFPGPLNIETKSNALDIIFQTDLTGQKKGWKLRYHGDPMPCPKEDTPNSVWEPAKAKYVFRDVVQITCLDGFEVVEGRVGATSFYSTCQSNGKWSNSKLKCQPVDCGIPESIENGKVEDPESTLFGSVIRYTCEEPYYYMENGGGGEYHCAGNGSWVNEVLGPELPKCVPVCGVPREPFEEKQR
T1 sequence (P09871 438-688 limits assumed): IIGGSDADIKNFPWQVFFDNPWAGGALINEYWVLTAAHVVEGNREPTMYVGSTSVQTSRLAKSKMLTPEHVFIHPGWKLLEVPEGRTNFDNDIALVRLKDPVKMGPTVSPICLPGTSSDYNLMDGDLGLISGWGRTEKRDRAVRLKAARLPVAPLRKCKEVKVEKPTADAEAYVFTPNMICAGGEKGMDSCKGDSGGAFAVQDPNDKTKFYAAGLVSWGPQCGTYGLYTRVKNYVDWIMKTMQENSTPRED
Put plainly: Test, Code 026 (C1 inhibitor). The assay is classed as biochemical. As to conditions: higher well number indicates higher activity, serial dilutions two-fold.
From the text: as §1

Assay [5] deals with shunt pathway activated by cobra venom factor. The assay is classed as cell-based, human. Conditions: higher well number indicates higher activity; serial dilutions two-fold.
From the text: as §1

Assay [6] relates to lethal shock by i.v. anti-Forssman antiserum. Put plainly: Forssman Shock Test. The assay is classed as in vivo. Conditions: guinea pig, at 200 mg/kg; Control=3.15 min. Here is the method: as §1, with “An active inhibitor protects EAC 142 from lysis by human C3-C9; (iii) Test, Code 036 (C-Shunt inhibitor)-In this test human erythrocytes rendered fragile are lysed in autologous serum via the shunt pathway activated by cobra venom factor in the presence of appropriate dilutions of the test compound. Inhibition of the shunt pathway results in failure of lysis; (iv) Forssman Vasculitis Test -- Here, the well known complement dependent lesion, Forssman vasculitis, is produced in guinea pigs by intradermal injection of rabbit anti-Forssman antiserum.” left out, “The concentration of compound inhibiting 50% is reported.” left out

The subject of assay [7] is whole complement. Description: Complement Level Reduction Test (serum of dosed guinea pigs, capillary tube assay). The assay is classed as in vivo, guinea pig.

With `Nc1ccc2cc(S(=O)(=O)O)cc(O)c2c1N=Nc1ccc(NC(=O)Nc2ccc(N=Nc3c(N)ccc4cc(S(=O)(=O)O)cc(O)c34)c(S(=O)(=O)O)c2)cc1S(=O)(=O)O` [chlorazol fast pink, 3,3'-ureylenebis-[6-(2-amino-8-hydroxy-6-sulfo-1-naphthylazo)]benzenesulfonic acid tetrasodium salt], in assay [1], the anticomplementary effect result is “anticomplementary effect”.
Regarding `NCCCCCC(=O)O` [epsilon-aminocaproic acid], the “treatment of hereditary angioneurotic edema” value in assay [2] is recorded as “used with success”.
`NC[C@H]1CC[C@H](C(=O)O)CC1` [tranexamic acid]: in assay [2], the “treatment of hereditary angioneurotic edema” value is on record as “used with success”.
As to heparin, in assay [1], the anticomplementary effect entry is listed as “anticomplementary effect”.
“α-Cyclodextrin polysulfate triethylammonium salt”: the “035 (C3-C9 inhibitor) activity, wells of a two-fold serial dilution assay” value in assay [3] was “Neg”. Also, in assay [4], the “026 (C1 inhibitor) activity, wells of a two-fold serial dilution assay” value turned out to be 11 wells. Moreover, the “036 (C-Shunt inhibitor) activity, wells of a two-fold serial dilution assay” value in assay [5] was 3 wells and 5 wells.
For α-cyclodextrin polysulfate sodium salt, in assay [6], the “Forsmann Shock, harmonic mean death time” value turned out to be 31.1 min. For the same molecule, the “035 (C3-C9 inhibitor) activity, wells of a two-fold serial dilution assay” value in assay [3] is “Neg”. Further, in assay [4], the “026 (C1 inhibitor) activity, wells of a two-fold serial dilution assay” value is listed as 14 wells. Further, the “In vivo Activity (Guinea Pig) % Inhibition” value in assay [7] (100 mg/kg i.v., time 2') is listed as 75%; in assay [7] (100 mg/kg i.v., time 30'), 56%; in assay [7] (100 mg/kg i.v., time 120'), 39%; in assay [7] (200 mg/kg i.p., time 30'), 71%; in assay [7] (200 mg/kg i.p., time 60'), 28%; in assay [7] (200 mg/kg i.p., time 120'), 72%. Besides, the “036 (C-Shunt inhibitor) activity, wells of a two-fold serial dilution assay” value in assay [5] is 6 wells.
Turning to “β-Cyclodextrin polysulfate potassium salt”, the “035 (C3-C9 inhibitor) activity, wells of a two-fold serial dilution assay” value in assay [3] was “Neg”. Besides, the “026 (C1 inhibitor) activity, wells of a two-fold serial dilution assay” value in assay [4] is given as 10 wells. The “036 (C-Shunt inhibitor) activity, wells of a two-fold serial dilution assay” value in assay [5] turned out to be 6 wells.
For the molecule β-Cyclodextrin polysulfate sodium salt, the “Forsmann Shock, harmonic mean death time” value in assay [6] is above 90 min. In assay [4] (sodium salt), the “026 (C1 inhibitor) activity, wells of a two-fold serial dilution assay” value is 12 wells and 11 wells and 10 wells. For the same molecule, the “In vivo Activity (Guinea Pig) % Inhibition” value in assay [7] (100 mg/kg i.v., time 2') turned out to be 75%; in assay [7] (100 mg/kg i.v., time 30'), 45%; in assay [7] (100 mg/kg i.v., time 120') it was 27%; in assay [7] (200 mg/kg i.p., time 30'), 49%; in assay [7] (200 mg/kg i.p., time 60'), 29%; in assay [7] (200 mg/kg i.p., time 120'), 67%.
As for “β-Cyclodextrin polysulfate triethylammonium salt”, the “035 (C3-C9 inhibitor) activity, wells of a two-fold serial dilution assay” value in assay [3] is “Neg”. Besides, the “026 (C1 inhibitor) activity, wells of a two-fold serial dilution assay” value in assay [4] amounted to 10 wells. The “036 (C-Shunt inhibitor) activity, wells of a two-fold serial dilution assay” value in assay [5] is 4 wells and 6 wells.
